Where two headings read alike, the source gives them in different places.
What was measured:
rNET [1] = molecular target: T1, rNET (Rattus norvegicus, UniProt Q63380); conditions: read-out: Ki, reuptake inhibition, rNET, synaptosomes; cited from earlier work
hNET [2] = molecular target: T2, hNET (Homo sapiens, UniProt P23975); conditions: read-out: IC50, reuptake inhibition, hNET-HEK293 cells; mean ± S.E.M.; cell suspensions; cited from earlier work
rNET [3] = molecular target: T1, rNET; format: biochemical; conditions: read-out: IC50, rNET, synaptosomes (in parentheses, converted from Ki)
hNET [4] = molecular target: T2, hNET; format: cell-based
SK-N-BE(2)C cells = test: Uptake kinetics of [3H]NE by adherent SK-N-BE; format: cell-based, human; conditions: RT, 24-well plates, 163 μg of protein/well, mean ± S.E.M., N = 3
hNET [5] = molecular target: T2, hNET; test: Reuptake inhibition assay, [3H]NE, plated hNET-HEK293 cells; format: cell-based

T2 sequence (P23975 whole entry): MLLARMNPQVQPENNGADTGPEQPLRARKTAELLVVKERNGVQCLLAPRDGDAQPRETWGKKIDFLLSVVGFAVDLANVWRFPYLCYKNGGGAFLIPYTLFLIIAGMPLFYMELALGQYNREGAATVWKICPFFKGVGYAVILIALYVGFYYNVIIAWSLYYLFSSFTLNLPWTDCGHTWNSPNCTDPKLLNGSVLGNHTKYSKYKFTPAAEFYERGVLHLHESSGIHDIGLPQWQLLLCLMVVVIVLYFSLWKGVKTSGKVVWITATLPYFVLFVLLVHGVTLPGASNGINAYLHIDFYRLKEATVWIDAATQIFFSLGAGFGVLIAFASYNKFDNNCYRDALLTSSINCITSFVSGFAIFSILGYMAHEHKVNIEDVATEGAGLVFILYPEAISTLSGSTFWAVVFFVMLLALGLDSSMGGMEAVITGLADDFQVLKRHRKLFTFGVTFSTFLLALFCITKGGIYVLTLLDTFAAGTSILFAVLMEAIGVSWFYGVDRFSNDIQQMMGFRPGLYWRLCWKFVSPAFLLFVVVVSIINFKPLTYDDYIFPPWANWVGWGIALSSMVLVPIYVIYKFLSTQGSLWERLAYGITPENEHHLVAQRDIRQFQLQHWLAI
T1 sequence (Q63380 1-617): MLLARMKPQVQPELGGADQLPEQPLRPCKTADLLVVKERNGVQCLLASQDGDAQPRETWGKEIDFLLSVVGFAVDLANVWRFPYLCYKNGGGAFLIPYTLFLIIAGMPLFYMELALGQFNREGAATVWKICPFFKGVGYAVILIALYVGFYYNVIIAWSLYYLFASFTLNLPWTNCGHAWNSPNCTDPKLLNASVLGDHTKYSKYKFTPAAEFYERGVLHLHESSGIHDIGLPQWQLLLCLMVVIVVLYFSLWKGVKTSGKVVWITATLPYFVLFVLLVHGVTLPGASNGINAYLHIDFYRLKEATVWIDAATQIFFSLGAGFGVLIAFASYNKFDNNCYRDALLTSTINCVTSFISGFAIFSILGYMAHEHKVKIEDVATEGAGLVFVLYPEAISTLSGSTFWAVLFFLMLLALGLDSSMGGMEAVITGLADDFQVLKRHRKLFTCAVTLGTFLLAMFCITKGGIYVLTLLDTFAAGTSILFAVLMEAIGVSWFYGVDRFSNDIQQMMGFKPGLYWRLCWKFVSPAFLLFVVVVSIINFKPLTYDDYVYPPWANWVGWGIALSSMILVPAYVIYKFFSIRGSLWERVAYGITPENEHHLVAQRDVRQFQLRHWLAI

c1ccc(CCCN2CCN(CCOC(c3ccccc3)c3ccccc3)CC2)cc1 [GBR12935]
Ki (rNET [1]): 277 nM | IC50 (hNET [2]): 235 ± 53 nM | IC50 (rNET [3]): 299 nM | fold less potent in SK-N-BE(2)C cells than in hNET-HEK293 cells (hNET [4]): 14.8 fold | fold less potent in SK-N-BE(2)C cells than in rat brain synaptosomes (hNET [4]): 11.6 fold | IC50 (hNET [4]; read-out: IC50, reuptake inhibition, hNET, SK-N-BE(2)C cells): 3470 ± 150 nM

CN1[C@H]2CC[C@@H]1[C@@H](C(=O)N1CCCC1)[C@@H](c1ccc(I)cc1)C2 [RTI-229]
fold less potent in SK-N-BE(2)C cells than in rat brain synaptosomes (hNET [4]; ratio of IC50 values): 38 fold

[3H][C@](O)(CN)c1ccc(O)c(O)c1 [[^3H]NE, [^3H]norepinephrine]
VMAX of [3H]NE uptake (SK-N-BE(2)C cells): 195 ± 13 fmol radioactivity/mg protein/min

COC(=O)[C@H]1C(c2ccc(I)cc2)C[C@@H]2CC[C@H]1N2C (stereo partly shown) [RTI-55]
IC50 (hNET [2]): 2.63 ± 0.76 nM | fold less potent in SK-N-BE(2)C cells than in rat brain synaptosomes (hNET [4]; ratio of IC50 values): 6 fold | fold less potent in SK-N-BE(2)C cells than in hNET-HEK293 cells (hNET [4]; ratio of IC50 values, hNET-HEK293 data of ref 8): 14.4 fold

Fc1ccc(C(OCCN2CCN(CCCc3ccccc3)CC2)c2ccc(F)cc2)cc1 [GBR12909]
activity in hNET-HEK293 cells, in words (hNET [5]): inactive

NC[C@H](O)c1ccc(O)c(O)c1 [[^3H]NE, [^3H]norepinephrine]
Km (SK-N-BE(2)C cells; read-out: KM of [3H]NE uptake): 0.416 µM

Reference: PMC5986547 (Heliyon, 2018)
